The values below come from ChEMBL document CHEMBL3797134, “Selectivity of 3-bromo-isoxazoline inhibitors between human and Plasmodium falciparum glyceraldehyde-3-phosphate dehydrogenases” (Bioorg Med Chem, 2016).

Calls of active or inactive are those of the source. No cut-off for these calls is given here.

Series [1] deals with Glyceraldehyde-3-phosphate dehydrogenase (Plasmodium falciparum) (UniProt Q8T6B1). Briefly: Slow phase inhibition of recombinant His-tagged Plasmodium falciparum GAPDH expressed in Escherichia coli using sodium arseniate as substrate assessed as ratio of Kinact to Ki by Kitz-Wilson double reciprocal plot analysis.
Series [2] relates to COc1ccc(C2CC(Br)=NO2)cc1. Briefly: Binding affinity to recombinant N-terminal His-tagged human GAPDH expressed in Escherichia coli BL21 codonPlus (DE3)-RIL cells assessed as enzyme Km at 50 uM after 4 hrs by Michaelis-Menten plot analysis (reference value: 340+/- 5 uM).
In series [3] the test system is COc1ccc(C2CC(Br)=NO2)cc1. Briefly: Binding affinity to recombinant N-terminal His-tagged human GAPDH expressed in Escherichia coli BL21 codonPlus (DE3)-RIL cells assessed as enzyme Vmax at 50 uM after 4 hrs by Michaelis-Menten plot analysis (reference value: 0.069 +/- 0.003 mM/min).
The target in series [4] is Glyceraldehyde-3-phosphate dehydrogenase (Plasmodium falciparum) (UniProt Q8T6B1). Briefly: Inhibition of recombinant His-tagged Plasmodium falciparum GAPDH expressed in Escherichia coli using sodium arseniate as substrate at 50 to 300 uM.
Series [5] has as its target Glyceraldehyde-3-phosphate dehydrogenase (Homo sapiens) (UniProt P04406). Briefly: Inhibition of recombinant N-terminal His-tagged human GAPDH expressed in Escherichia coli BL21 codonPlus (DE3)-RIL cells using sodium arseniate as substrate at 10 to 300 uM.
The target of series [6] is Glyceraldehyde-3-phosphate dehydrogenase (Plasmodium falciparum) (UniProt Q8T6B1). Briefly: Fast phase inhibition of recombinant His-tagged Plasmodium falciparum GAPDH expressed in Escherichia coli using sodium arseniate as substrate assessed as ratio of Kinact to Ki by Kitz-Wilson double reciprocal plot analysis.
Series [7] addresses Glyceraldehyde-3-phosphate dehydrogenase (Homo sapiens) (UniProt P04406). Briefly: Fast phase inhibition of recombinant N-terminal His-tagged human GAPDH expressed in Escherichia coli BL21 codonPlus (DE3)-RIL cells using sodium arseniate as substrate assessed as ratio of Kinact to Ki by Kitz-Wilson double reciprocal plot analysis.
Series [8] has the same target. Briefly: Binding affinity to recombinant N-terminal His-tagged human GAPDH expressed in Escherichia coli BL21 codonPlus (DE3)-RIL cells assessed as decrease in reactive cysteine content at 50 uM after 4 hrs relative to control. On the set-up: scale not given: the % may be the effect or the level left.
The target is the same in series [9]. Briefly: Binding affinity to recombinant N-terminal His-tagged human GAPDH expressed in Escherichia coli BL21 codonPlus (DE3)-RIL cells assessed as remaining cysteine pKa at 300 uM after 4 hrs (reference value: 6).
Series [10] shares this target. Briefly: Effect on dimer to tetramer equilibrium of recombinant N-terminal His-tagged human GAPDH expressed in Escherichia coli BL21 codonPlus (DE3)-RIL cells at 50 uM after 4 hrs by gel filtration method. In general terms: SEC sorts molecules by how far they enter the pores of the column.

Chain of Glyceraldehyde-3-phosphate dehydrogenase (Plasmodium falciparum) (Q8T6B1 as listed by the source): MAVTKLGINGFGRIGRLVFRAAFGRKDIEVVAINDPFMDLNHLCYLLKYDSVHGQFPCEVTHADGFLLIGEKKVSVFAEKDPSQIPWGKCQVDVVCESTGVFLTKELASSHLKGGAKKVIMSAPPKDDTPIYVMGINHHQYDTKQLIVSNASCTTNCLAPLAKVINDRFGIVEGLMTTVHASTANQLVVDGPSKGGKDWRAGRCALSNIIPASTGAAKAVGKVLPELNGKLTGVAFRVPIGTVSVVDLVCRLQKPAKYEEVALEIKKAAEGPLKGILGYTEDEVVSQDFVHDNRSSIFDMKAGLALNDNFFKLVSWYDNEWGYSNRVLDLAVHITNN
Chain of Glyceraldehyde-3-phosphate dehydrogenase (Homo sapiens) (P04406 2-335 limits assumed): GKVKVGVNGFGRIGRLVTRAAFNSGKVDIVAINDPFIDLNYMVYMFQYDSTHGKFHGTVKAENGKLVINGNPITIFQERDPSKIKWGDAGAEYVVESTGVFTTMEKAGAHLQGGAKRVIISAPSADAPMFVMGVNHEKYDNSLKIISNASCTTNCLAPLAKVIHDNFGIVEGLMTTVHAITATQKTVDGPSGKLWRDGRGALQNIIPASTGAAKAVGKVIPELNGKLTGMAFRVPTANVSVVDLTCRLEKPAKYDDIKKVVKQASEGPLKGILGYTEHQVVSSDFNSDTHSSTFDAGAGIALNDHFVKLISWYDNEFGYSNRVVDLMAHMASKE
Chain of Glyceraldehyde-3-phosphate dehydrogenase (Homo sapiens), P04406 (P04406 whole entry): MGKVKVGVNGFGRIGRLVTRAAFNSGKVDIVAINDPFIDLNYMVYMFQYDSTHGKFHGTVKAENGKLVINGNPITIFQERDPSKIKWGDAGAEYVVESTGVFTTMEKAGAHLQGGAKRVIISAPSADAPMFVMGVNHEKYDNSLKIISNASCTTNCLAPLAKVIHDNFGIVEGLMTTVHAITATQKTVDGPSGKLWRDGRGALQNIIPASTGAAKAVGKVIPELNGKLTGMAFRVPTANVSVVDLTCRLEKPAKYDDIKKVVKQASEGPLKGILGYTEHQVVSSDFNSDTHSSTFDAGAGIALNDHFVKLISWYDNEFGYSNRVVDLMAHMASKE

For `COC(=O)[C@@H](N)[C@@H]1CC(Br)=NO1`, in series [1], the Ratio was 10.7 s⁻¹ M⁻¹.
A word on the Km: it is the substrate concentration at which the rate is half of its maximum. Broadly, the Vmax is the top rate of the reaction or transport when substrate is in excess. In the case of “Glyceraldehyde-3-phosphate dehydrogenase (Homo sapiens), P04406”, the Km in series [2] turned out to be 299 µM. Also, the Vmax in [3] stood at 0.051 mM/min.
Usually inhibition stands for the relative decrease from the control value, in per cent. In the case of `COc1ccc(C2CC(Br)=NO2)cc1` (stereo unspecified), the inhibition in series [4] stood at 25%. For the same compound, the inhibition result in [5] is “Active”. Also, the Ratio was determined as 0.34 s⁻¹ M⁻¹ in series [1], 59.9 s⁻¹ M⁻¹ in series [6] and 142 s⁻¹ M⁻¹ in series [7]. Moreover, in [8], the Activity worked out at 7.8%. In addition, the pKa in [9] stood at 6.3. Moreover, the result in series [10] was inactive.
